Results as given in patent US9234902B2, “Method for monitoring anticoagulant therapy” (priority 2011, dated 2016).

Legend:
[1] = system: FII, FVII and FX; assay: Sequential PT-INR (PP-INR) measurements over 49 days in a single patient starting on warfarin; type: in vivo, human; conditions: FIG. 6, grey zone
Description: Both the Quick prothrombin time (PT) and the Owren's prothrombin time (prothrombin proconverting time, P&P test) were measured on patient samples. The STA-R coagulation analyzer was used (Diagnostika Stago, Asnieres, France). The PT was done using the STA-Néoplastine® CI plus as coagulation reagent, with and ISI value of 1.3 and the P&P was done using the STA-SPA 50 reagent with ISI of 1.01 (both from Diagnostika Stago). The P&P reagent is similar to the PT reagent but also consists of added absorbed bovine plasma as a source of coagulation factor V and fibrinogen and, thus, is only sensitive to the activity of FII, FVII and FX. The P&P percentages were calculated from a standard curve based on serially diluted pooled plasma in Owren's buffer. The INR is calculate as described above.
In FIG. 6 we show sequential measurements of Fiix-INR, PP-INR, FII, FVII and FX over 49 days in a single patient starting on warfarin. The amount of coagulation factors (percentage) is shown on the left Y-axis and the INR value on the right Y-axis. The change in INR in relation to changes in concentrations of the VKD factors can be derived from the graph. […]

[2] = system: FII and FX; assay: Sequential Fiix-INR (Fiix-PT) measurements over 49 days in a single patient starting on warfarin; type: in vivo, human; conditions: FIG. 6
Text: The test results may be obtained as clotting time, clotting time ratio or any other endpoint measuring thrombin generation or fibrin formation. […] Since this is a variant of the prothrombin time we call it “Fiix-prothrombin time” or Fiix-PT.
In our new method, which we call Fiix-method, a test plasma sample (patient plasma) is mixed with normal plasma that has been immunodepleted of both FII and FX (Fiix-deficient plasma). Using such mixture, by adding thromboplastin and calcium, a prothrombin time variant can be measured that is only sensitive to FII and FX, ie Fiix-PT. In the Fiix-PT the proportions of test plasma to Fiix-deficient plasma can be in the range from 1:1 to 1:20 parts, preferably in the range from 1:2 to 1:10 (see below).
Based on the experiments shown in FIG. 4 we decided to measure the Fiix-PT by mixing […] of a 1:7 dilution of test plasma with 25 uL of Fiix-deficient plasma (i.e. final proportion 1 part test plasma to 2.2 parts Fiix-deficient plasma). We then measured “Fiix-PT” in samples from 38 patients on stable warfarin therapy and calculated the international normalized ratio (“Fiix-INR”). […] Corresponding results were found when Fiix-INR was correlated with Quick PT based INR(PT-INR, data not shown).
In FIG. 6 we show sequential measurements of Fiix-INR, PP-INR, FII, FVII and FX over 49 days in a single patient starting on warfarin. […]

CC(=O)CC(c1ccccc1)c1c(O)c2ccccc2oc1=O (centres unmarked) [warfarin]
day on which the patient has reached an acceptable anticoagulated range by PT-INR [1]: 3 days
day on which the patient reaches an acceptable INR value (acceptable anticoagulation) by Fiix-INR [2]: 5 days
